Assay results: US8372869B2, “Process for the treatment of bacterial infections using 2-phenyl-1,2-benzisoselenazol-3(2H)-one 1-oxide” (priority 2008, dated 2013)
“Also recorded” adds a separate entry of the source.

Tests used:
[1] = system: S. aureus strain NARSA VRS1 (resistant to both methicillin and vancomycin); experiment: Broth microdilution susceptibility testing, methicillin- and vancomycin-resistant S. aureus; format: cell-based, Staphylococcus aureus; conditions: strain NARSA VRS1, Mueller Hinton Broth, 24 (±4) hr, 35-37° C., 3.125-25 μM tested
From the text: (§1) A Gram-negative Escherichia coli strain, DH5(alpha), was purchased from Invitrogen (Cat #18265-017; Carlsbad, Calif.) and a Gram-positive Staphylococcus aureus strain, positive for catalase and coagulase, was purchased from Ward's Natural Science (Cat #85V1178; Rochester, N.Y.). S. aureus strain ATCC 33592 is a clinical isolate which is resistant to methicillin and which was obtained from the American Type Culture Collection (Manassas, Va.). S. aureus strain NARSA VRS 1 is a clinical isolate which is resistant to both methicillin and vancomycin and which was obtained from Focus Technologies, Inc. (Herndon, Va.). These bacterial strains were used to test the antibacterial activity of ebselen se-oxide. To prepare ebselen se-oxide, an adequate amount of said compound was dissolved in 0.5 mL of dimethylsulfoxide (DMSO) to give a 30.0 mM stock solution.
(§2) Note that all susceptibility assays were performed in triplicate wells using sterile flat-bottom 96-well microtiter plates. […] After 24 (±4) hr of incubation at 35-37° C., the MIC (minimum inhibitory concentration) for ebselen se-oxide was determined for each strain visually by comparing the turbidity of the triplicate treatments to that observed for drug-free growth control wells. […]

[2] = system: Escherichia coli strain DH5(alpha) (Gram-negative); experiment: Bacterial growth inhibition by light-scattering at 550 nm, Escherichia coli; format: cell-based; conditions: read-out: IC50 towards Escherichia coli cells (growth inhibition)
From the text: as §1
(§3) Luria Broth (LB) was used to for the culturing of both bacterial strains. […]
(§4) Bacterial growth, in the absence or presence of ebselen se-oxide, was assessed by light-scattering at 550 nm. In separate experiments, bacterial cells of either the Staphylococcus aureus or the Escherichia coli strain were inoculated into polypropylene tubes containing 5 mL of LB medium to obtain an initial optical density at 550 nm (OD550) of ˜0.005, as determined using a spectrophotometer (UV 160U, Shimadzu Corp., Kyoto, Japan). […]

[3] = system: S. aureus strain ATCC 33592 (resistant to methicillin); experiment: Broth microdilution susceptibility testing, methicillin-resistant S. aureus; format: cell-based, Staphylococcus aureus; conditions: strain ATCC 33592, Mueller Hinton Broth, 24 (±4) hr, 35-37° C., 3.125-25 μM tested
From the text: as §1, §2

A-431 human skin cells = experiment: MTT viability assay in human skin cells; format: cell-based; conditions: 12.5, 25 or 50 μM, 24 hr, 37° C., serum-free DMEM
Procedure: Cells were then incubated for 24 hr at 37° C. After incubation, the MTT viability assay was performed. This assay measures the conversion of 3-[4,5-dimethylthiazol-2-yl]-2,5-diphenyl tetrazolium bromide (MTT) into a colored product in living cells. The optical density of this purple formazan product in the cell culture medium was then measured spectrophotometrically at 570 nm and cell viability was determined as described by Mosmann (15).
The MTT assay was used to determine cell viability and the LC50 value for ebselen se-oxide in these cells was evaluated.

[4] = system: Staphylococcus aureus strain, positive for catalase and coagulase (Gram-positive); experiment: Bacterial growth inhibition by light-scattering at 550 nm, Staphylococcus aureus; format: cell-based; conditions: read-out: IC50, concentration required to inhibit the growth of Staphylococcus aureus to 50% of the untreated control
From the text: as §1, §3, §4

SMILES	MIC (lowest concentration showing 100% growth inhibition in all three wells) [1]	IC50 [2] [µM]	MIC (lowest concentration showing 100% growth inhibition in all three wells) [3]	Cytotoxic effect on viability of A-431 human skin cells (MTT) (A-431 human skin cells)	IC50 [4] [µM]
O=C1c2ccccc2[Se](=O)N1c1ccccc1 (stereo not drawn) [ebselen se-oxide, 2-phenyl-1,2-benzisoselenazol-3(2H)-one 1-oxide]	low micromolar range	~17	low micromolar range	neither compound was toxic; also recorded: no toxicity	~0.6
O=c1c2ccccc2[se]n1-c1ccccc1 [ebselen, 2-phenyl-1,2-benzoisoselenazol-3(2H)-one, reference compound]				neither compound was toxic	
